Test results reported in US20260234129A1, “NOVEL IMIDAZOLE DERIVATIVE AND USE THEREOF” (PELEMED CO., LTD., priority 2023, published 2026).

Columns and labels:
Experiment in all cases: scanMax kinase panel (Eurofins)
Assay type in all cases: binding
PIM3 = target: T1, PIM3 (Homo sapiens, UniProt Q86V86); conditions: PIM3, 1 μM; read-out: % control
T1 construct: purchased Eurofins scanMax kinase panel
Method: (§1) The following assay method was performed to evaluate the inhibitory activities of a compound according to the present invention with respect to various enzymes. […] The compound was applied to the enzyme at a concentration of 1 μM, dissolved in DMSO, and the % control was determined according to Equation 1 below.
(§2) Here, the positive control refers to a compound corresponding to 0% control, and the negative control refers to a compound corresponding to 100% control.

RET(V804M) = target: T2, RET(V804M) (Homo sapiens, UniProt P07949, V804M); conditions: read-out: % control
T2 construct: purchased Eurofins scanMax kinase panel
Method: as §1, §2

MAP3K1 = target: T3, MAP3K1 (Homo sapiens, UniProt Q13233); conditions: MAP3K1, 1 μM; read-out: % control
T3 construct: purchased Eurofins
Method: as §1, §2

HIPK3 = target: T4, HIPK3 (Homo sapiens, UniProt Q9H422); conditions: HIPK3, 1 μM; read-out: % control
T4 construct: purchased Eurofins
T4 sequence (Q9H422 whole entry): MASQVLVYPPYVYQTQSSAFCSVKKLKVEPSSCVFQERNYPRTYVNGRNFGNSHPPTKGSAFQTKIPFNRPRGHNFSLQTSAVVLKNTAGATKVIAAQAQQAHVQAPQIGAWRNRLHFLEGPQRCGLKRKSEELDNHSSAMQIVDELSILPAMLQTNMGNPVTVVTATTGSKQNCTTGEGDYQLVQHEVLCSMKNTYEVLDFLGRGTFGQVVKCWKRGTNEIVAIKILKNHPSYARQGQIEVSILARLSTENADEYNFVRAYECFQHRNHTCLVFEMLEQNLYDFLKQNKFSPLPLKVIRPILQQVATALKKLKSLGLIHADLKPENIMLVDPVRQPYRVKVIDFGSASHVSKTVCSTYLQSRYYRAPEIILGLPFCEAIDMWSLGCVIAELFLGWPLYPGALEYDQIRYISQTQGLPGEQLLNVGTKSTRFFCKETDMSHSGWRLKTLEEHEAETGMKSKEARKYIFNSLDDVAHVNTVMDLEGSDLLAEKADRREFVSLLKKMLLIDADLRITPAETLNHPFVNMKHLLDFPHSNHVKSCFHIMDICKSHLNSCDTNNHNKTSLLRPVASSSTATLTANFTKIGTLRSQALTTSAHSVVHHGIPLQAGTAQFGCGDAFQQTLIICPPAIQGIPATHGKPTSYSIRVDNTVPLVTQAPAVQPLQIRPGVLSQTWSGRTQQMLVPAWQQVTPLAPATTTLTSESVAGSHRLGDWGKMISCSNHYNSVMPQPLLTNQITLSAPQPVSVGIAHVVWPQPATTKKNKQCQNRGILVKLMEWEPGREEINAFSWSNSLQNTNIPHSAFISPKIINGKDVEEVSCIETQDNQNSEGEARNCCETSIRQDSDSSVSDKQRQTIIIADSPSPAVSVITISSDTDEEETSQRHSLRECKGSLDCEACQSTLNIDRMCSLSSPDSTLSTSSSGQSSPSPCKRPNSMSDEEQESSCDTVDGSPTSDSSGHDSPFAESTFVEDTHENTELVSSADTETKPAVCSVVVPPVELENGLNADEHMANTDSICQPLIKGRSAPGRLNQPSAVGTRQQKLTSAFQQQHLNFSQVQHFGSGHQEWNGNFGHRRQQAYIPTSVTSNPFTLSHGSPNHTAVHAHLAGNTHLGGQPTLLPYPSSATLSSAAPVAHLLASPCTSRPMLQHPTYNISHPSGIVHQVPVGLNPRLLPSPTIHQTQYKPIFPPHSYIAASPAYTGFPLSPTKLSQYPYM
Method: as §1, §2

ERK3 = target: T5, ERK3 (Homo sapiens, UniProt Q16659); conditions: ERK3, 1 μM; read-out: % control
T5 construct: purchased Eurofins scanMax® kinase panel
Method: as §1, §2

IRAKI = target: T6, IRAKI (Homo sapiens, UniProt P51617); conditions: read-out: % control
T6 construct: purchased Eurofins
Method: as §1, §2

KIT = target: T7, KIT (Homo sapiens, UniProt P10721); conditions: read-out: % control
T7 construct: purchased Eurofins
Method: as §1, §2

[1] = target: T8, JAK2(JH1domain-catalytic) (Homo sapiens, UniProt O60674); conditions: read-out: % control
T8 construct: JAK2(JH1domain-catalytic); purchased Eurofins
Method: as §1, §2

IRAK4 = target: T9, IRAK4 (Homo sapiens, UniProt Q9NWZ3); conditions: IRAK4, 1 μM; read-out: % control
T9 construct: purchased Eurofins
Method: as §1, §2

[2] = target: T10, JAK3(JH1domain-catalytic) (Homo sapiens, UniProt P52333); conditions: read-out: % control
T10 construct: JAK3(JH1domain-catalytic); purchased Eurofins
T10 sequence (P52333 822-1111 limits assumed): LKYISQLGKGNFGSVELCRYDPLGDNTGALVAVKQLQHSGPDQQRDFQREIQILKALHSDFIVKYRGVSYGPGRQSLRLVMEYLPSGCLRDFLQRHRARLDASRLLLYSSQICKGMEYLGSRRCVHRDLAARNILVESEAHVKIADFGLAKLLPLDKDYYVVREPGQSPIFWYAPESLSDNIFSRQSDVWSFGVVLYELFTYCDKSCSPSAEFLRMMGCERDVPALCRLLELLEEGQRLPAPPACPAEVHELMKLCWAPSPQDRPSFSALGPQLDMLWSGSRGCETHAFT
Method: as §1, §2

GSK3B = target: T11, GSK3B (Homo sapiens, UniProt P49841); conditions: read-out: % control
T11 construct: purchased Eurofins scanMax® kinase panel
Method: as §1, §2

TRKA = target: T12, TRKA (Homo sapiens, UniProt P04629); conditions: read-out: % control
T12 construct: purchased Eurofins scanMax kinase panel
Method: as §1, §2

PAK7 = target: T13, PAK7 (Homo sapiens, UniProt Q9P286); conditions: PAK7, 1 μM; read-out: % control
T13 construct: purchased Eurofins scanMax kinase panel
T13 sequence (Q9P286 whole entry): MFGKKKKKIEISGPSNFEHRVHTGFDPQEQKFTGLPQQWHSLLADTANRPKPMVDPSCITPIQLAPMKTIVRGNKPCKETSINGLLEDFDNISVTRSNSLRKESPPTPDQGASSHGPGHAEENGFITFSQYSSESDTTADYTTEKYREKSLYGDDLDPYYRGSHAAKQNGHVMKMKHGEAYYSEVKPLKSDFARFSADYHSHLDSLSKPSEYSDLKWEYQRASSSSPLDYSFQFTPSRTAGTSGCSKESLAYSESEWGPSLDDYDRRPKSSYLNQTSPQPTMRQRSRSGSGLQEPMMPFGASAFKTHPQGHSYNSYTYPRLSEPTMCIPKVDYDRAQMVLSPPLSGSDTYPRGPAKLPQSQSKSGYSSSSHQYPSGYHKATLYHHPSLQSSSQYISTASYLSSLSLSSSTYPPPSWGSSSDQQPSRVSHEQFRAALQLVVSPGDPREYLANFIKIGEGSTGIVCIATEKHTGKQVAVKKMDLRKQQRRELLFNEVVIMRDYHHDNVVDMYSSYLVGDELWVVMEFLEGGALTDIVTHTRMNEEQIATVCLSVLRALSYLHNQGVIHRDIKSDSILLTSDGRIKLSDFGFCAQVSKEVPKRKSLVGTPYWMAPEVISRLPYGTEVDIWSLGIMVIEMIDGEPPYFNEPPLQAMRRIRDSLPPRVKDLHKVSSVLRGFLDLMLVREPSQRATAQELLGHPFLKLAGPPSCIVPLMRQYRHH
Method: as §1, §2

RET(V804L) = target: T14, RET(V804L) (Homo sapiens, UniProt P07949, V804L); conditions: read-out: % control
T14 construct: purchased Eurofins scanMax kinase panel
Method: as §1, §2

CDK5 = target: T15, CDK5 (Homo sapiens, UniProt Q00535); conditions: CDK5, 1 μM; read-out: % control
T15 construct: purchased Eurofins scanMax® kinase panel
T15 sequence (Q00535 whole entry): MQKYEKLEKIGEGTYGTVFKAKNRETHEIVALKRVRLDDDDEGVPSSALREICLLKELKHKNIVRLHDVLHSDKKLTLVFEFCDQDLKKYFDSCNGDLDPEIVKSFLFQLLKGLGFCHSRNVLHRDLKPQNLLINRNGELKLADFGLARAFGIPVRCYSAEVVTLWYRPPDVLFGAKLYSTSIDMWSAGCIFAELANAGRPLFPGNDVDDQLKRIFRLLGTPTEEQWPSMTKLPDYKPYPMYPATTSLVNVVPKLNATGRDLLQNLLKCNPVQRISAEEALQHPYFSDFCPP
Method: as §1, §2

[3] = target: T16, ABL1(F317I)-phosphorylated (Homo sapiens, UniProt P00519, F317I); conditions: read-out: % control
T16 construct: purchased Eurofins
Method: as §1, §2

AURKB = target: T17, AURKB (Homo sapiens, UniProt Q96GD4); conditions: read-out: % control
T17 construct: purchased Eurofins
Method: as §1, §2

MEK3 = target: T18, MEK3 (Homo sapiens, UniProt P46734); conditions: MEK3, 1 μM; read-out: % control
T18 construct: purchased Eurofins
Method: as §1, §2

DYRKIA = target: T19, DYRKIA (Homo sapiens, UniProt Q13627); conditions: read-out: % control
T19 construct: purchased Eurofins scanMax® kinase panel
Method: as §1, §2

SRC = target: T20, SRC (Homo sapiens, UniProt P12931); conditions: read-out: % control
T20 construct: purchased Eurofins scanMax kinase panel
T20 sequence (P12931 whole entry): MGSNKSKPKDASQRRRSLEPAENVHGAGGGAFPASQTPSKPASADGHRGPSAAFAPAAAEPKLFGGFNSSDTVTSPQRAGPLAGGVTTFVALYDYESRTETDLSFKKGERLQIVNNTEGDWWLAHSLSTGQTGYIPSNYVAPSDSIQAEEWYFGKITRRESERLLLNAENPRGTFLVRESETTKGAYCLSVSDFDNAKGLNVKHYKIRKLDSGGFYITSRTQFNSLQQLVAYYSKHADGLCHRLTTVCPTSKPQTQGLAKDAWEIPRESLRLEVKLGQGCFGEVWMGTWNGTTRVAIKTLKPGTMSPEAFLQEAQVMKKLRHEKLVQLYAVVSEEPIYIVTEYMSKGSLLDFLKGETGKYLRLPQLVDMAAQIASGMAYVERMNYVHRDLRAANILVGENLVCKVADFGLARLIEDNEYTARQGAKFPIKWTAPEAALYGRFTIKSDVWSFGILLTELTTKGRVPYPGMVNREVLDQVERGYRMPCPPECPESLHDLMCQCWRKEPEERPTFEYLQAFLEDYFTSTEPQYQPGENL
Method: as §1, §2

KIT(A829P) = target: T21, KIT(A829P) (Homo sapiens, UniProt P10721, A829P); conditions: read-out: % control
T21 construct: purchased Eurofins
Method: as §1, §2

[4] = target: T22, ABL1(T315I)-phosphorylated (Homo sapiens, UniProt P00519, T315I); conditions: read-out: % control
T22 construct: purchased Eurofins
Method: as §1, §2

MEK6 = target: T23, MEK6 (Homo sapiens, UniProt P52564); conditions: MEK6, 1 μM; read-out: % control
T23 construct: purchased Eurofins scanMax kinase panel
Method: as §1, §2

HASPIN = target: T24, HASPIN (Homo sapiens, UniProt Q8TF76); conditions: read-out: % control
T24 construct: purchased Eurofins scanMax® kinase panel
Method: as §1, §2

[5] = target: T25, ABL1(H396P)-nonphosphorylated (Homo sapiens, UniProt P00519, H396P); conditions: read-out: % control
T25 construct: purchased Eurofins
Method: as §1, §2

[6] = target: T26, ABL1(Q252H)-nonphosphorylated (Homo sapiens, UniProt P00519, Q252H); conditions: read-out: % control
T26 construct: purchased Eurofins
Method: as §1, §2

KIT(D816V) = target: T27, KIT(D816V) (Homo sapiens, UniProt P10721, D816V); conditions: read-out: % control
T27 construct: purchased Eurofins
Method: as §1, §2

ARK5 = target: T28, ARK5 (Homo sapiens, UniProt O60285); conditions: ARK5, 1 μM; read-out: % control
T28 construct: purchased Eurofins
Method: as §1, §2

MAP3K2 = target: T29, MAP3K2 (Homo sapiens, UniProt Q9Y2U5); conditions: MAP3K2, 1 μM; read-out: % control
T29 construct: purchased Eurofins
T29 sequence (Q9Y2U5 whole entry): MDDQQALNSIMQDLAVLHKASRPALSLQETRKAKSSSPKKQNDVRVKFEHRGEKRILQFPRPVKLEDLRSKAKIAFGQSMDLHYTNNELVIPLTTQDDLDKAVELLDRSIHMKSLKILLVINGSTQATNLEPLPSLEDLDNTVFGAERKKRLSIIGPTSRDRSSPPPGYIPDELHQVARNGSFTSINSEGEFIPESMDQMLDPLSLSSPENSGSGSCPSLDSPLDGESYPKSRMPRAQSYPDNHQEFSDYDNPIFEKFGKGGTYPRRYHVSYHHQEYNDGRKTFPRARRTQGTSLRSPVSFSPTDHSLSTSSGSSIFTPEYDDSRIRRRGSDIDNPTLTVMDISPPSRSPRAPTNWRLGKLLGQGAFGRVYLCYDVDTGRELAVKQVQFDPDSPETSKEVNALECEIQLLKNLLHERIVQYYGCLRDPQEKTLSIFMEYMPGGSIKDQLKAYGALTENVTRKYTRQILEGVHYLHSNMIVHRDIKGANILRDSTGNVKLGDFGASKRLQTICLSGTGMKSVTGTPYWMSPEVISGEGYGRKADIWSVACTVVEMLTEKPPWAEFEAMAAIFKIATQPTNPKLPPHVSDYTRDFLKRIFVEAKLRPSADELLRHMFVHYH
Method: as §1, §2

DYRK1B = target: T30, DYRK1B (Homo sapiens, UniProt Q9Y463); conditions: read-out: % control
T30 construct: purchased Eurofins scanMax® kinase panel
Method: as §1, §2

MEK4 = target: T31, MEK4 (Homo sapiens, UniProt P45985); conditions: MEK4, 1 μM; read-out: % control
T31 construct: purchased Eurofins
Method: as §1, §2

MEK5 = target: T32, MEK5 (Homo sapiens, UniProt Q13163); conditions: MEK5, 1 μM; read-out: % control
T32 construct: purchased Eurofins scanMax kinase panel
Method: as §1, §2

IRAK3 = target: T33, IRAK3 (Homo sapiens, UniProt Q9Y616); conditions: IRAK3, 1 μM; read-out: % control
T33 construct: purchased Eurofins
Method: as §1, §2

MAP3K15 = target: T34, MAP3K15 (Homo sapiens, UniProt Q6ZN16); conditions: MAP3K15, 1 μM; read-out: % control
T34 construct: purchased Eurofins
T34 sequence (Q6ZN16 whole entry): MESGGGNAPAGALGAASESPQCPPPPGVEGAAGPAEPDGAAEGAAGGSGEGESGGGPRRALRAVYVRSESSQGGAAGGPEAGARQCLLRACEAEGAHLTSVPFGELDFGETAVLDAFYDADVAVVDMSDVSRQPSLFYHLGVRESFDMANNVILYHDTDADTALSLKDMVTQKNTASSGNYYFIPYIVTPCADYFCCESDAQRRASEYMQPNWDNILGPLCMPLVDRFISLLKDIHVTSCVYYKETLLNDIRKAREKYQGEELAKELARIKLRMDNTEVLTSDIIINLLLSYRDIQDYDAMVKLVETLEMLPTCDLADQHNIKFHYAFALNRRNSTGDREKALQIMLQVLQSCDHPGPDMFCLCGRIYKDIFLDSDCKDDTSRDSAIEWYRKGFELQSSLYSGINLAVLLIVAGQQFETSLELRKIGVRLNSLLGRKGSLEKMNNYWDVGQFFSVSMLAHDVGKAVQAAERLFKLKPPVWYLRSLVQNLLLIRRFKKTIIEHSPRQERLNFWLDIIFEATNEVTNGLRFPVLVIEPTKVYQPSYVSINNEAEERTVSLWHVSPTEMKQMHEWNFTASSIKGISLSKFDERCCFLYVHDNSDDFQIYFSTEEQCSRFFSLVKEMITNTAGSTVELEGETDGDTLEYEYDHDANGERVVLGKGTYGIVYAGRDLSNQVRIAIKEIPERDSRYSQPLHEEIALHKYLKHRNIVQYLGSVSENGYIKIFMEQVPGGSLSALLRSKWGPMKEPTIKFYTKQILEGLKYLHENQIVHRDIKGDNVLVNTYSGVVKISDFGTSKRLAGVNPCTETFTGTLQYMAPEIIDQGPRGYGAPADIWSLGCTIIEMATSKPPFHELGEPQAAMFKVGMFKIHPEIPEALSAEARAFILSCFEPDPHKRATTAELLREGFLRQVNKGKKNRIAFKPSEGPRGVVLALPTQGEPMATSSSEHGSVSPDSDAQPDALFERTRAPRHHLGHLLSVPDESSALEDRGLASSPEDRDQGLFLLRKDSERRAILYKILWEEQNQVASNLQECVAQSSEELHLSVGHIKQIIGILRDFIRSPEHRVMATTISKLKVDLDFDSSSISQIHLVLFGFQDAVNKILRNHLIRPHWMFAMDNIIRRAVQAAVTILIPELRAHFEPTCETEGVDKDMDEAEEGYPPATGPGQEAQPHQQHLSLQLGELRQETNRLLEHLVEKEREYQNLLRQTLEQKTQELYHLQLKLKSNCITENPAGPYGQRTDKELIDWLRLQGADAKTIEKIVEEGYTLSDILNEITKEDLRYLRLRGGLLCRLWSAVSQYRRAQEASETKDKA
Method: as §1, §2

remaining binding at 1 µM (PIM3): < 10%
remaining binding at 1 µM (RET(V804M)): < 10%
remaining binding at 1 µM (MAP3K1): < 10%
remaining binding at 1 µM (HIPK3): < 10%
remaining binding at 1 µM (ERK3): < 10%
remaining binding at 1 µM (IRAKI): < 10%
remaining binding at 1 µM (KIT): < 10%
remaining binding at 1 µM [1]: < 10%
remaining binding at 1 µM (IRAK4): < 10%
remaining binding at 1 µM [2]: < 10%
remaining binding at 1 µM (GSK3B): < 10%
remaining binding at 1 µM (TRKA): < 10%
remaining binding at 1 µM (PAK7): < 10%
remaining binding at 1 µM (RET(V804L)): < 10%
remaining binding at 1 µM (CDK5): < 10%
remaining binding at 1 µM [3]: < 10%
remaining binding at 1 µM (AURKB): < 10%
remaining binding at 1 µM (MEK3): < 10%
remaining binding at 1 µM (DYRKIA): < 10%
remaining binding at 1 µM (SRC): < 10%
remaining binding at 1 µM (KIT(A829P)): < 10%
remaining binding at 1 µM [4]: < 10%
remaining binding at 1 µM (MEK6): < 10%
remaining binding at 1 µM (HASPIN): < 10%
remaining binding at 1 µM [5]: < 10%
remaining binding at 1 µM [6]: < 10%
remaining binding at 1 µM (KIT(D816V)): < 10%
remaining binding at 1 µM (ARK5): < 10%
remaining binding at 1 µM (MAP3K2): < 10%
remaining binding at 1 µM (DYRK1B): < 10%
remaining binding at 1 µM (MEK4): < 10%
remaining binding at 1 µM (MEK5): < 10%
remaining binding at 1 µM (IRAK3): < 10%
remaining binding at 1 µM (MAP3K15): < 10%
SMILES: COc1ccc2nc(-c3n[nH]c4ccc(C(=O)N[C@H]5CC[C@H](N)C5)cc34)[nH]c2c1 [Example 32, N-((1S,3S)-3-aminocyclopentyl)-3-(6-methoxy-1H-benzo[d]imidazol-2-yl)-1H-indazole-5-carboxamide]
